This note sets out measurements from patent US12662490B2, “Heterocyclic compounds” (Hoffmann-La Roche Inc., priority 2019, dated 2026).

For the assay, the target named is T1, MAGL (Homo sapiens, UniProt Q99685).
T1 sequence (Q99685 1-303): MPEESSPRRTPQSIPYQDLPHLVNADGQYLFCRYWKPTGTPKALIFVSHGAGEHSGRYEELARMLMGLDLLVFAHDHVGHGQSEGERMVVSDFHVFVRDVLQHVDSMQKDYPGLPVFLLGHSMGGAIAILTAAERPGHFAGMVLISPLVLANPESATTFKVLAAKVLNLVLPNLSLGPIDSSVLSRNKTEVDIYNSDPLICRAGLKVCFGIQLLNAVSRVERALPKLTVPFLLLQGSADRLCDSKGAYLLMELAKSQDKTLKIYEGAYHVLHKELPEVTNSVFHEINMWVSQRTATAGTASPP
Description: 2-AG assay (MAGL inhibitory activity; hydrolysis of 2-arachidonoylglycerol to arachidonic acid followed by mass spectrometry). The assay is classed as biochemical. Particulars: 15 min preincubation at RT, 8 μM 2-arachidonoylglycerol, 30 min at RT, RapidFire MS readout. How it is done:
Compounds were profiled for MAGL inhibitory activity by determining the enzymatic activity by following the hydrolysis of the natural substrate 2-arachidonoylglycerol (2-AG) resulting in arachidonic acid, which can be followed by mass spectrometry. This assay is hereinafter abbreviated “2-AG assay”.
The 2-AG assay was carried out in 384 well assay plates (PP, Greiner Cat #784201) in a total volume of 20 μL. Compound dilutions were made in […] (VWR Chemicals 23500.297) in a polypropylene plate in 3-fold dilution steps to give a final concentration range in the assay from 12.5 μM to […]. 0.25 μL compound dilutions (100% DMSO) were added to 9 μL MAGL in assay buffer (50 mM TRIS (GIBCO, 15567-027), 1 mM EDTA (Fluka, 03690-100 mL), 0.010 (v/v) Tween. After shaking, the plate was incubated for 15 min at RT. To start the reaction, 10 μL 2-arachidonoylglycerol in assay buffer was added. The final concentrations in the assay was […] and 8 μM 2-arachidonoylglyerol. After shaking and 30 min incubation at RT, the reaction was quenched by the addition of 40 μL of ACN containing 4 μM of d8-arachidonic acid. The amount of arachidonic acid was traced by an online SPE system (Agilent Rapidfire) coupled to a triple quadrupole mass spectrometer (Agilent 6460). A C18 SPE cartridge (G9205A) was used in an ACN/water liquid setup. The mass spectrometer was operated in negative electrospray mode following the mass transitions 303.1→259.1 for arachidonic acid and 311.1→267.0 for d8-arachidonic acid. The activity of the compounds was calculated based on the ratio of intensities [arachidonic acid/d8-arachidonic acid].
`COc1ccc(C(=O)N2CCN3C[C@@H](c4ccc(F)c(Cl)c4)OC[C@@H]3C2)c(Cl)c1OC` [Example 19, [(3R,9aS)-3-(3-chloro-4-fluoro-phenyl)-3,4,6,7,9,9a-hexahydro-1H-pyrazino[2,1-c][1,4]oxazin-8-yl]-(2-chloro-3,4-dimethoxy-phenyl)methanone] returned an IC50 of 0.305 µM. This lies in the sub-micromolar range.
Take `Cc1cccc(C(=O)N2CCN3C[C@@H](c4ccc(F)c(Cl)c4)OC[C@@H]3C2)c1C#N` [Example 20, 2-[(3R,9aS)-3-(3-chloro-4-fluoro-phenyl)-3,4,6,7,9,9a-xahydro-1H-pyrazino[2,1-c][1,4]oxazine-8-carbonyl]-6-methyl-benzonitrile]: the midpoint of inhibition, the IC50, lay at 0.121 µM.
In the case of `O=C(c1cccc(OC(F)(F)F)c1F)N1CCN2C[C@@H](c3ccc(F)c(Cl)c3)OC[C@@H]2C1` [Example 21, [(3R,9aS)-3-(3-chloro-4-fluoro-phenyl)-3,4,6,7,9,9a-hexahydro-1H-pyrazino[2,1-c][1,4]oxazin-8-yl]-[2-fluoro-3-(trifluoromethoxy)phenyl]methanone] it was 0.746 µM; in that of `O=C(c1cccc(-c2ccccc2)c1Cl)N1CCN2C[C@@H](c3ccc(F)c(Cl)c3)OC[C@@H]2C1` [Example 22, [(3R,9aS)-3-(3-chloro-4-fluoro-phenyl)-3,4,6,7,9,9a-hexahydro-1H-pyrazino[2,1-c][1,4]oxazin-8-yl]-(2-chloro-3-phenyl-phenyl)methanone], 0.0161 µM; in that of `COc1ccccc1-c1cccc(C(=O)N2CCN3C[C@@H](c4ccc(F)c(Cl)c4)OC[C@@H]3C2)c1Cl` [Example 23, [(3R,9aS)-3-(3-chloro-4-fluoro-phenyl)-3,4,6,7,9,9a-hexahydro-1H-pyrazino[2,1-c][1,4]oxazin-8-yl]-[2-chloro-3-(2-methoxyphenyl)phenyl]methanone], 0.0263 µM.
With `COc1cccc(C(=O)N2CCN3C[C@@H](c4ccc(F)c(C5CC5)c4)OC[C@@H]3C2)c1Cl` [Example 24, [(3R,9aS)-3-(3-cyclopropyl-4-fluoro-phenyl)-3,4,6,7,9,9a-hexahydro-1H-pyrazino[2,1-c][1,4]oxazin-8-yl]-(2-chloro-3-methoxy-phenyl)methanone], half-maximal inhibition (IC50) was put at 0.0948 µM. Compared with the last compound, the IC50 is about 3.6-fold higher.
The same measure for `O=C(c1cccc(OC(F)F)c1Cl)N1CCN2C[C@@H](c3ccc(F)c(Cl)c3)OC[C@@H]2C1` [Example 25, [(3R,9aS)-3-(3-chloro-4-fluoro-phenyl)-3,4,6,7,9,9a-hexahydro-1H-pyrazino[2,1-c][1,4]oxazin-8-yl]-[2-chloro-3-(difluoromethoxy)phenyl]methanone]: 0.131 µM; for `Cc1[nH]ncc1-c1cccc(C(=O)N2CCN3C[C@@H](c4ccc(F)c(Cl)c4)OC[C@@H]3C2)c1Cl` [Example 26, [(3R,9aS)-3-(3-chloro-4-fluoro-phenyl)-3,4,6,7,9,9a-hexahydro-1H-pyrazino[2,1-c][1,4]oxazin-8-yl]-[2-chloro-3-(5-methyl-1H-pyrazol-4-yl)phenyl]methanone]: 0.0106 µM; for `Cc1ccncc1-c1cccc(C(=O)N2CCN3C[C@@H](c4ccc(F)c(Cl)c4)OC[C@@H]3C2)c1Cl` [Example 27, [(3R,9aS)-3-(3-chloro-4-fluoro-phenyl)-3,4,6,7,9,9a-hexahydro-1H-pyrazino[2,1-c][1,4]oxazin-8-yl]-[2-chloro-3-(4-methyl-3-pyridyl)phenyl]methanone]: 0.21 µM.
The same measure for `Cc1cnccc1-c1cccc(C(=O)N2CCN3C[C@@H](c4ccc(F)c(Cl)c4)OC[C@@H]3C2)c1Cl` [Example 28, [(3R,9aS)-3-(3-chloro-4-fluoro-phenyl)-3,4,6,7,9,9a-hexahydro-1H-pyrazino[2,1-c][1,4]oxazin-8-yl]-[2-chloro-3-(3-methyl-4-pyridyl)phenyl]methanone]: 0.0326 µM; for `O=C(c1cccc(-c2ccnnc2)c1Cl)N1CCN2C[C@@H](c3ccc(F)c(Cl)c3)OC[C@@H]2C1` [Example 29, [(3R,9aS)-3-(3-chloro-4-fluoro-phenyl)-3,4,6,7,9,9a-hexahydro-1H-pyrazino[2,1-c][1,4]oxazin-8-yl]-(2-chloro-3-pyridazin-4-yl-phenyl)methanone]: 0.202 µM; for `O=C(c1cccc(-c2ccccn2)c1Cl)N1CCN2C[C@@H](c3ccc(F)c(Cl)c3)OC[C@@H]2C1` [Example 30, [(3R,9aS)-3-(3-chloro-4-fluoro-phenyl)-3,4,6,7,9,9a-hexahydro-1H-pyrazino[2,1-c][1,4]oxazin-8-yl]-[2-chloro-3-(2-pyridyl)phenyl]methanone]: 0.0492 µM.
For `O=C(c1cccc(-c2cccnn2)c1Cl)N1CCN2C[C@@H](c3ccc(F)c(Cl)c3)OC[C@@H]2C1` [Example 31, [(3R,9aS)-3-(3-chloro-4-fluoro-phenyl)-3,4,6,7,9,9a-hexahydro-1H-pyrazino[2,1-c][1,4]oxazin-8-yl]-(2-chloro-3-pyridazin-3-yl-phenyl)methanone], the midpoint of inhibition, the IC50, lay at 0.173 µM.
`Cc1ccnnc1-c1cccc(C(=O)N2CCN3C[C@@H](c4ccc(F)c(Cl)c4)OC[C@@H]3C2)c1Cl` [Example 34, [(3R,9aS)-3-(3-chloro-4-fluoro-phenyl)-3,4,6,7,9,9a-hexahydro-1H-pyrazino[2,1-c][1,4]oxazin-8-yl]-[2-chloro-3-(4-methylpyridazin-3-yl)phenyl]methanone]: the IC50 was 1.44 µM. Against the preceding compound, the IC50 is about 8.3-fold higher.
`Cc1cncnc1-c1cccc(C(=O)N2CCN3C[C@@H](c4ccc(F)c(Cl)c4)OC[C@@H]3C2)c1Cl` [Example 35, [(3R,9aS)-3-(3-chloro-4-fluoro-phenyl)-3,4,6,7,9,9a-hexahydro-1H-pyrazino[2,1-c][1,4]oxazin-8-yl]-[2-chloro-3-(5-methylpyrimidin-4-yl)phenyl]methanone] had an IC50 of 1.08 µM.
With `O=C(c1cccc(-c2cnc[nH]2)c1Cl)N1CCN2C[C@@H](c3ccc(F)c(Cl)c3)OC[C@@H]2C1` [Example 36, [(3R,9aS)-3-(3-chloro-4-fluoro-phenyl)-3,4,6,7,9,9a-hexahydro-1H-pyrazino[2,1-c][1,4]oxazin-8-yl]-[2-chloro-3-(1H-imidazol-5-yl)phenyl]methanone], 0.0074 µM corresponded to half-maximal inhibition (IC50).
For the compound `Cc1cccnc1-c1cccc(C(=O)N2CCN3C[C@@H](c4ccc(F)c(Cl)c4)OC[C@@H]3C2)c1Cl` [Example 37, [(3R,9aS)-3-(3-chloro-4-fluoro-phenyl)-3,4,6,7,9,9a-hexahydro-1H-pyrazino[2,1-c][1,4]oxazin-8-yl]-[2-chloro-3-(3-methyl-2-pyridyl)phenyl]methanone], the IC50 was found to be 0.277 µM.
As to `O=C(c1cccc(-c2cn[nH]c2)c1Cl)N1CCN2C[C@@H](c3ccc(F)c(Cl)c3)OC[C@@H]2C1` [Example 38, [(3R,9aS)-3-(3-chloro-4-fluoro-phenyl)-3,4,6,7,9,9a-hexahydro-1H-pyrazino[2,1-c][1,4]oxazin-8-yl]-[2-chloro-3-(1H-pyrazol-4-yl)phenyl]methanone], half-maximal inhibition (IC50) was put at 0.0019 µM.
Compound `Cc1c(-c2cccc(C(=O)N3CCN4C[C@@H](c5ccc(F)c(Cl)c5)OC[C@@H]4C3)c2Cl)cnn1C` [Example 39, [(3R,9aS)-3-(3-chloro-4-fluoro-phenyl)-3,4,6,7,9,9a-hexahydro-1H-pyrazino[2,1-c][1,4]oxazin-8-yl]-[2-chloro-3-(1,5-dimethylpyrazol-4-yl)phenyl]methanone] displayed an IC50 of 0.0497 µM.
The same measure for `Cc1nocc1-c1cccc(C(=O)N2CCN3C[C@@H](c4ccc(F)c(Cl)c4)OC[C@@H]3C2)c1Cl` [Example 40, [(3R,9aS)-3-(3-chloro-4-fluoro-phenyl)-3,4,6,7,9,9a-hexahydro-1H-pyrazino[2,1-c][1,4]oxazin-8-yl]-[2-chloro-3-(3-methylisoxazol-4-yl)phenyl]methanone]: 0.16 µM.
In the case of `Cc1n[nH]c2ccc(C(=O)N3CCN4C[C@@H](c5ccc(F)c(Cl)c5)OC[C@@H]4C3)c(Cl)c12` [Example 41, [(3R,9aS)-3-(3-chloro-4-fluoro-phenyl)-3,4,6,7,9,9a-hexahydro-1H-pyrazino[2,1-c][1,4]oxazin-8-yl]-(4-chloro-3-methyl-1H-indazol-5-yl)methanone] it was 0.0638 µM; in that of `O=C(c1cccc(N2CC3(COC3)C2)c1Cl)N1CCN2C[C@@H](c3ccc(F)c(Cl)c3)OC[C@@H]2C1` [Example 42, [(3R,9aS)-3-(3-chloro-4-fluoro-phenyl)-3,4,6,7,9,9a-hexahydro-1H-pyrazino[2,1-c][1,4]oxazin-8-yl]-[2-chloro-3-(2-oxa-6-azaspiro[3.3]heptan-6-yl)phenyl]methanone], 0.0486 µM.
